Source: patent US20190375708A1 (VenatoRx Pharmaceuticals, Inc., priority 2018, published 2019)
pEC50: −log10 of the molar value.

Experiments:
[1] = In vitro cytotoxicity assay (MTT cell viability) in HepG2 cells; type: cell-based, human; details: human
In short: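 Read-out: MTT formazan absorbance at 492 nm, expressed as % of vehicle signal; CC50 by 4-parameter non-linear regression. Parental HepG2, 20,000 cells/well, treated 7 days with compound from 30 μM down to 1.0 nM.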

[2] = test system: HBV replication in HepAD38 cells; test: Anti-HBV replication assay in HepAD38 cells (QPCR of extracellular HBV DNA); type: cell-based, HBV (genotype D, serotype ayw); details: Hepatitis B virus, 168 h, 7 days incubation, extracellular HBV DNA by QPCR, read-out: Anti-HBV EC50
In short: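 Stably transfected HepG2-derived HepAD38 cells express HBV (genotype D, ayw) once tetracycline is withdrawn. Compounds act for 7 days, after which secreted HBV DNA is quantified by QPCR relative to DMSO-treated wells.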

SMILES	CC50 at 7 days [1] [nM]	pEC50 [2]
Cc1cc(NC(=O)c2c(C)c(C(=O)C(=O)N[C@H](C(N)=O)[C@H](C)O)n(C)c2C)ccc1F [Example 57, 5-(2-(((2S,3S)-1-amino-3-hydroxy-1-oxobutan-2-yl)amino)-2-oxoacetyl)-N-(4-fluoro-3-methylphenyl)-1,2,4-trimethyl-1H-pyrrole-3-carboxamide]	> 30000	6.30 to 7.30
Cc1nc2c(s1)C(NC(=O)C(=O)c1c(C)c(C(=O)Nc3ccnc(F)c3)c(C)n1C)CCC2 (stereo not drawn) [Example 607, N-(2-fluoropyridin-4-yl)-1,2,4-trimethyl-5-(2-((2-methyl-4,5,6,7-tetrahydrobenzo[d]thiazol-7-yl)amino)-2-oxoacetyl)-1H-pyrrole-3-carboxamide]	> 30000	> 7.30
Cc1c(C(=O)Nc2cccc(C(F)F)c2)c(C)n(C)c1C(=O)C(=O)N[C@@H]1CC[C@@H](O)C1 [Example 721, N-(3-(difluoromethyl)phenyl)-5-(2-(((1R,3R)-3-hydroxycyclopentyl)amino)-2-oxoacetyl)-1,2,4-trimethyl-1H-pyrrole-3-carboxamide]	> 30000	> 7.30
Cc1cc(NC(=O)c2c(Cl)c(C(=O)C(=O)NC(C)(C)CO)n(C)c2C)ccc1F [Example 365, 4-chloro-N-(4-fluoro-3-methylphenyl)-5-(2-((1-hydroxy-2-methylpropan-2-yl)amino)-2-oxoacetyl)-1,2-dimethyl-1H-pyrrole-3-carboxamide]	> 30000	> 7.30
Cc1cc(NC(=O)c2c(Cl)c(C(=O)C(=O)N[C@H]3CCC[C@H]3O)n3c2CCCC3)ccc1F [Example 506, 2-chloro-N-(4-fluoro-3-methylphenyl)-3-(2-(((1S,2R)-2-hydroxycyclopentyl)amino)-2-oxoacetyl)-5,6,7,8-tetrahydroindolizine-1-carboxamide]	5000 to 30000	6.00 to 6.30
O=C(N[C@H]1C[C@H](O)C1)C(=O)c1c(Cl)c(C(=O)Nc2ccc(F)c(Cl)c2)c2n1CCC2 [Example 555, 6-chloro-N-(3-chloro-4-fluorophenyl)-5-(2-(((1r,3r)-3-hydroxycyclobutyl)amino)-2-oxoacetyl)-2,3-dihydro-1H-pyrrolizine-7-carboxamide]	5000 to 30000	6.30 to 7.30
O=C(N[C@H]1CCC[C@H]1O)C(=O)c1c(Cl)c(C(=O)Nc2ccc(F)c(Cl)c2)c2n1CCCC2 [Example 514, 2-chloro-N-(3-chloro-4-fluorophenyl)-3-(2-(((1S,2R)-2-hydroxycyclopentyl)amino)-2-oxoacettyl)-5,6,7,8-tetrahydroindolizine-1-carboxamide]	5000 to 30000	6.30 to 7.30
Cc1cc(NC(=O)c2cc(C(=O)C(=O)NC(C)(C)C(N)=O)n3c2CCCC3)ccc1F [Example 406]	> 30000	6.00 to 6.30
Cc1noc([C@@H](C)NC(=O)C(=O)c2c(Cl)c(C(=O)Nc3ccc(F)c(C)c3)c3n2CCC3)n1 [Example 546, (R)-6-chloro-N-(4-fluoro-3-methylphenyl)-5-(2-((1-(3-methyl-1,2,4-oxadiazol-5-yl)ethyl)amino)-2-oxoacetyl)-2,3-dihydro-1H-pyrrolizine-7-carboxamide]	> 30000	> 7.30
Cc1noc([C@H](C)NC(=O)C(=O)c2c(Cl)c(C(=O)Nc3cnc(F)c(C)c3)c3n2CCC3)n1 [Example 736, (S)-6-chloro-N-(6-luoro-5-methylpyridin-3-yl)-5-(2-((1-(3-methyl-1,2,4-oxadiazol-5-yl)ethyl)amino)-2-oxoacetyl)-2,3-dihydro-1H-pyrrolizine-7-carboxamide]	5000 to 30000	> 7.30
Cc1cc(NC(=O)c2c(C)c(C(=O)C(=O)N[C@H](CO)C(N)=O)n(C)c2C)ccc1F [Example 54, (R)-5-(2-((1-amino-3-hydroxy-1-oxopropan-2-yl)amino)-2-oxoacetyl)-N-(4-fluoro-3-methylphenyl)-1,2,4-trimethyl-1H-pyrrole-3-carboxamide]	> 30000	6.30 to 7.30
Cc1cc(NC(=O)c2c(C)c(C(=O)C(=O)NC(C)(C)c3noc(CN(C)C)n3)n(C)c2C)cnc1F [Example 200, 5-(2-((2-(5-((dimethylamino)methyyl)-1,2,4-oxadiazol-3-yl)propan-2-yl)amino)-2-oxoacetyl)-N-(6-fluoro-5-methylpyridin-3-yl)-1,2,4-trimethyl-1H-pyrrole-3-carboxamide]	> 30000	6.30 to 7.30
COc1c(C(=O)Nc2ccc(F)c(F)c2)c(C)n(C)c1C(=O)C(=O)N[C@H]1CC[C@@H](O)CC1 [Example 383, N-(3,4-difluorophenyl)-5-(2-(((1s,4s)-4-hydroxycyclohexyl)amino)-2-oxoacetyl)-4-methoxy-1,2-dimethyl-1H-pyrrole-3-carboxamide]	> 30000	6.00 to 6.30
Cc1c(C(=O)Nc2ccnc(Cl)c2)c(C)n(C)c1C(=O)C(=O)NC(C)(C)CN1CCOCC1 [Example 331, N-(2-chloropyridin-4-yl)-1,2,4-trimethyl-5-(2-((2-methyl-1-morpholinopropan-2-yl)amino)-2-oxoacetyl)-1H-pyrrole-3-carboxamide]	> 30000	> 7.30
Cc1cc(NC(=O)c2c(Cl)c(C(=O)C(=O)NCc3cnc(N)s3)n3c2CCCC3)ccc1F [Example 503, 3-(2-(((2-aminothiazol-5-yl)methyl)amino)-2-oxoacetyl)-2-chloro-N-(4-fluoro-3-methylphenyl)-5,6,7,8-tetrahydroindolizine-1-carboxamide]	> 30000	> 7.30
Cc1cc(NC(=O)c2c(C)c(C(=O)C(=O)N[C@@H]3CCC[C@H]3O)n(C)c2C)ccc1F [Example 95, N-(4-fluoro-3-methylphenyl)-5-(2-(((1R,2R)-2-hydroxycyclopentyl)amino)-2-oxoacetyl)-1,2,4-trimethyl-1H-pyrrole-3-carboxamide]	> 30000	> 7.30
O=C(N[C@H]1CCC[C@H]1O)C(=O)c1c(Cl)c(C(=O)Nc2ccc(F)c(F)c2)c2n1CCC2 [Example 571, 6-chloro-N-(3,4-difluorophenyl)-5-(2-(((1S,2R)-2-hydroxycyclopentyl)amino)-2-oxoacetyl)-2,3-dihydro-1H-pyrrolizine-7-carboxamide]	> 30000	6.30 to 7.30
COCC(C)(C)NC(=O)C(=O)c1c(C)c(C(=O)Nc2ccc(F)c(C)c2)c(C)n1C [Example 169, N-(4-fluoro-3-methylphenyl)-5-(2-((1-methoxy-2-methylpropan-2-yl)amino)-2-oxoacetyl)-1,2,4-trimethyl-1H-pyrrole-3-carboxamide]	> 30000	> 7.30
Cc1cc(NC(=O)c2c(C)c(C(=O)C(=O)NCC(=O)N3CCOCC3)n(C)c2C)ccc1F [Example 299, N-(4-fluoro-3-methylphenyl)-1,2,4-trimethyl-5-(2-((2-morpholino-2-oxoethyl)amino)-2-oxoacetyl)-1H-pyrrole-3-carboxamide]	> 30000	6.30 to 7.30
Cc1cc(NC(=O)c2c(C)c(C(=O)C(=O)N[C@@]3(C)CC[C@H](O)C3)n(C)c2C)ccc1F [Example 723, N-(4-fluoro-3-methylphenyl)-5-(2-(((1 S,3S)-3-hydroxy-1-methylcyclopentyl)amino)-2-oxoacetyl)-1,2,4-trimethyl-1H-pyrrole-3-carboxamide]	> 30000	> 7.30
COCC(C)(C)NC(=O)C(=O)c1c(C)c(C(=O)Nc2cnc(F)c(C)c2)c(C)n1C [Example 167, N-(6-fluoro-5-methylpyridin-3-yl)-5-(2-((1-methyoxy-2-methylpropan-2-yl)amino)-2-oxoacetyl)-1,2,4-trimethyl-1H-pyrrole-3-carboxamide]	> 30000	> 7.30
Cc1cc(NC(=O)c2cc(C(=O)C(=O)NC3(C)CC(F)(F)C3)n3c2CCCC3)ccc1F [Example 404, 3-(2-((3,3-difluoro-1-methylcyclobutyl)amino)-2-oxoacetyl)-N-(4-fluoro-3-methylphenyl)-5,6,7,8-tetrahydroindolizine-1-carboxamide]	> 30000	6.30 to 7.30
CC(C)(C)NC(=O)C(=O)c1cc(C(=O)Nc2cc(F)cc(Cl)c2)c2n1CCCC2 [Example 395, 3-(2-(tert-butylamino)-2-oxoacetyl)-N-(3-chloro-5-fluorophenyl)-5,6,7,8-tetrahydroindolizine-1-carboxamide]	500 to 4990	< 6.00
Cc1noc([C@H](C)NC(=O)C(=O)c2c(Cl)c(C(=O)Nc3cnc(F)c(C)c3)c3n2CCCC3)n1 [Example 521, (S)-2-chloro-N-(6-fluoro-5-methylpyridin-3-yl)-3-(2-((1-(3-methyl-1,2,4-oxadiazol-5-yl)ethyl)amino)-2-oxoacetyl)-5,6,7,8-tetrahydroindolizine-1-carboxamide]	> 30000	< 6.00
Cc1cc(NC(=O)c2c(C)c(C(=O)C(=O)NC3CCOCC3(C)C)n(C)c2C)ccc1F (stereo not drawn) [Example 281]	5000 to 30000	> 7.30
Cc1cc(NC(=O)c2c(C)c(C(=O)C(=O)NC(C)(C)C(F)(F)F)n(C)c2C)cnc1F [Example 173, N-(6-fluoro-5-methylpyridin-3-yl)-1,2,4-trimethyl-5-(2-oxo-2-((1,1,1-trifluoro-2-methylpropan-2-yl)amino)acetyl)-1H-pyrrole-3-carboxamide]	> 30000	> 7.30
Cc1c(C(=O)Nc2ccnc(F)c2)c(C)n(C)c1C(=O)C(=O)N[C@@H](C)C(F)(F)F [Example 274, (S)-N-(2-fluoropyridin-4-yl)-1,2,4-trimethyl-5-(2-oxo-2-((1,1,1-trifluoropropan-2-yl)amino)acetyl)-1H-pyrrole-3-carboxamide]	> 30000	> 7.30
